Reference: publication PMC8359193, “Summary of reference chemicals evaluated by the fish short‐term reproduction assay, OECD TG229, using Japanese Medaka, Oryzias latipes” (Journal of Applied Toxicology, 2021)

Columns and labels:
[1] = system: Japanese medaka (Oryzias latipes); test: Fish short-term reproduction assay (FSTRA, OECD TG229), 21-day flow-through exposure; settings: for LOEC on female SSC (papillary process formation on anal fin): measured conc.; for Fertility rate (%) / Mortality (%) Female / Mortality (%) Male / Number of fertilized eggs / Number of total eggs / SSC Female / SSC Male / VTG (ng/mg of liver) Female / VTG (ng/mg of liver) Male: 21 days; for effect on fecundity (number of total eggs), in words: within the test concentrations
Outline: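 Japanese medaka (NIES-R strain, 16 ± 2 weeks old) were exposed in flow-through tanks for 3 weeks, three males and three females per tank, four replicate tanks per group, with a dilution water control. Concentrations were spaced by a factor of 2–5. Eggs were collected daily and counted as fertilized or unfertilized.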

[2] = target: medaka ARβ (mARβ) (Oryzias latipes, UniProt D1MV73); test: Medaka ARβ reporter gene assay (RGA), agonist assay, HepG2 cells; format: cell-based, Japanese medaka (Oryzias latipes)
Chain of medaka ARβ (mARβ) (D1MV73 entry or part of it): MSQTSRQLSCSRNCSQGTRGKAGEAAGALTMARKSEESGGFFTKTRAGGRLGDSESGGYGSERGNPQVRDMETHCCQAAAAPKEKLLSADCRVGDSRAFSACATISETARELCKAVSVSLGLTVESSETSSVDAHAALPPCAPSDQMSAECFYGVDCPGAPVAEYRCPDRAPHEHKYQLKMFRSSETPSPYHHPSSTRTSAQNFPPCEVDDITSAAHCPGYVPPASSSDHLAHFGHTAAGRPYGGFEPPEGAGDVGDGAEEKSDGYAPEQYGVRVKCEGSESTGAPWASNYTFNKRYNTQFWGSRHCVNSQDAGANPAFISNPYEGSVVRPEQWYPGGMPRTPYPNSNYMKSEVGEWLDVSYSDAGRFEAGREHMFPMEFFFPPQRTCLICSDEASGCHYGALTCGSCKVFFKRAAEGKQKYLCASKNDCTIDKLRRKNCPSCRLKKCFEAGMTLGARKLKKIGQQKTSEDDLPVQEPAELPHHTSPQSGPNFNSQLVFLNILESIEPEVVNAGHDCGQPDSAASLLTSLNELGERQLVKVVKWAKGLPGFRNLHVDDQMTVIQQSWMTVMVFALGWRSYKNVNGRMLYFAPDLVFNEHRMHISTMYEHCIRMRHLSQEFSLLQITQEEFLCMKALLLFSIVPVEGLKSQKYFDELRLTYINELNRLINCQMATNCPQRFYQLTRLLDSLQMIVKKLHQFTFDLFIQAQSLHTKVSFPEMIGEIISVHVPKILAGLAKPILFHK
Protocol: To support interpretation of the biological effects observed in the FSTRA studies, in vitro RGAs using medaka Esr1 (mEsr1) and medaka ARβ (mARβ) were performed for the 16 test chemicals.
For the assays, human liver cancer cell line, HepG2, was used as the host cells, and mARβ/pcDNA3.1, MMTV‐Luc, and pRL‐TK‐Rlu were used as mARβ expression vector, reporter vector, and internal control vector, respectively.
Effect concentrations, that is, EC50 (a half maximal effective concentration) in the agonist assay and IC50 (a half maximal inhibitory concentration) in the antagonist assay, were estimated by nonlinear curve fitting (e.g., three parameters logistic regression curve) using GraphPad Prism (GraphPad Software Inc., La Jolla, CA, USA).

[3] = measured conc. 7.3 ng/L, at completion of exposure
[4] = measured conc. 42.2 ng/L, at completion of exposure
[5] = measured conc. 226 ng/L, at completion of exposure
[6] = measured conc. 11 μg/L, at completion of exposure
[7] = measured conc. 24 μg/L, at completion of exposure
[8] = measured conc. 64 μg/L, at completion of exposure
[9] = measured conc. 243 μg/L, at completion of exposure

Which results are given for C#C[C@]1(O)CC[C@H]2[C@@H]3CCC4=CC(=O)CC[C@@H]4[C@H]3CC[C@@]21CC [LNG, Levonorgestrel]?
LOEC on female SSC (papillary process formation on anal fin) ([1]; 21-day exposure): 42.2 ng/L; concentration at which female hepatic VTG was significantly decreased ([1]; highest concentration, 21-day exposure): 226 ng/L; GSI Male [1, 3]: 0.82%; HSI Male [1, 3]: 2.0%; Length Male [1, 3]: 38.4 mm; Weight Male [1, 3]: 610 mg; GSI Male [1, 4]: 0.89%; HSI Male [1, 4]: 2.2%; Length Male [1, 4]: 38.8 mm; Weight Male [1, 4]: 691 mg; GSI Male [1, 5]: 0.76%; HSI Male [1, 5]: 2.1%; Length Male [1, 5]: 38.3 mm; Weight Male [1, 5]: 610 mg; Fertility rate (%) ([1]; measured conc. 7.3 ng/L): 87%; Mortality (%) Female ([1]; measured conc. 7.3 ng/L): 0%; Mortality (%) Male ([1]; measured conc. 7.3 ng/L): 0%; Number of fertilized eggs ([1]; measured conc. 7.3 ng/L): 25; Number of total eggs ([1]; measured conc. 7.3 ng/L): 29 ± 5.8 /female/day; SSC Female ([1]; measured conc. 7.3 ng/L): 0 ± 0; SSC Male ([1]; measured conc. 7.3 ng/L): 112 ± 4.5; VTG (ng/mg of liver) Female ([1]; measured conc. 7.3 ng/L): 2,370 ± 207 ng/mg of liver; VTG (ng/mg of liver) Male ([1]; measured conc. 7.3 ng/L): 2.8 ± 4.1 ng/mg of liver; Fertility rate (%) ([1]; measured conc. 42.2 ng/L): 82%; Mortality (%) Female ([1]; measured conc. 42.2 ng/L): 8%; Mortality (%) Male ([1]; measured conc. 42.2 ng/L): 0%; Number of fertilized eggs ([1]; measured conc. 42.2 ng/L): 17; Number of total eggs ([1]; measured conc. 42.2 ng/L): 21 ± 3.9 /female/day; SSC Female ([1]; measured conc. 42.2 ng/L): 44 ± 10; SSC Male ([1]; measured conc. 42.2 ng/L): 121 ± 8.6; VTG (ng/mg of liver) Female ([1]; measured conc. 42.2 ng/L): 2,350 ± 673 ng/mg of liver; VTG (ng/mg of liver) Male ([1]; measured conc. 42.2 ng/L): 0.8 ± 0.3 ng/mg of liver; Fertility rate (%) ([1]; measured conc. 226 ng/L): 82%; Mortality (%) Female ([1]; measured conc. 226 ng/L): 0%; Mortality (%) Male ([1]; measured conc. 226 ng/L): 0%; Number of fertilized eggs ([1]; measured conc. 226 ng/L): 5.1; Number of total eggs ([1]; measured conc. 226 ng/L): 5.9 ± 5.2 /female/day; SSC Female ([1]; measured conc. 226 ng/L): 83 ± 5.4; SSC Male ([1]; measured conc. 226 ng/L): 116 ± 10; VTG (ng/mg of liver) Female ([1]; measured conc. 226 ng/L): 1,120 ± 561 ng/mg of liver; VTG (ng/mg of liver) Male ([1]; measured conc. 226 ng/L): 0.6 ± 0.1 ng/mg of liver; effect on fecundity (number of total eggs), in words ([1]; 21-day exposure): significant difference from the control; mARβ agonist activity (in words) [2]: potent AR agonists

CC(=O)[C@H]1CC[C@H]2[C@@H]3CCC4=CC(=O)CC[C@]4(C)[C@H]3CC[C@]12C [P4, Progesterone] was tested. Which “effect on female hepatic VTG, in words” value ([1]; 21-day exposure) did it give?
The value was “no alteration”.

What about the “LOEC on female SSC (papillary process formation on anal fin)” value ([1]; 21-day exposure) of the same molecule?
The value was 11000 ng/L.

What about the “GSI Female” value ([1]; female, measured conc. 243 μg/L, at completion of exposure) of the same molecule?
The value was 36.9%.

And the “GSI Male” value [1, 6]?
The value was 1.20%.

And the “HSI Male” value [1, 6]?
The value was 2.0%.

And the “Length Male” value [1, 6]?
The value was 36.9 mm.

What about the “Weight Male” value [1, 6] of the same molecule?
The value was 501 mg.

What about the “GSI Male” value [1, 7] of the same molecule?
The value was 1.04%.

And the “HSI Male” value [1, 7]?
The value was 1.9%.

And the “Length Male” value [1, 7]?
Its value is 36.4 mm.

What about the “Weight Male” value [1, 7] of the same molecule?
Its value is 475 mg.

And the “GSI Male” value [1, 8]?
Its value is 1.14%.

And the “HSI Male” value [1, 8]?
The value was 2.8%.

What about the “Length Male” value [1, 8] of the same molecule?
The value was 37.1 mm.

And the “Weight Male” value [1, 8]?
Its value is 465 mg.

What about the “GSI Male” value [1, 9] of the same molecule?
Its value is 1.15%.

What about the “HSI Male” value [1, 9] of the same molecule?
The value was 2.1%.

What about the “Length Male” value [1, 9] of the same molecule?
Its value is 36.9 mm.

And the “Weight Male” value [1, 9]?
The value was 479 mg.

And the “Fertility rate (%)” value ([1]; measured conc. 11 μg/L)?
Its value is 92%.

What about the “Mortality (%) Female” value ([1]; measured conc. 11 μg/L) of the same molecule?
The value was 0%.

What about the “Mortality (%) Male” value ([1]; measured conc. 11 μg/L) of the same molecule?
Its value is 0%.

What about the “Number of fertilized eggs” value ([1]; measured conc. 11 μg/L) of the same molecule?
Its value is 17.

And the “Number of total eggs” value ([1]; measured conc. 11 μg/L)?
The value was 18 ± 3.8 /female/day.

What about the “SSC Female” value ([1]; measured conc. 11 μg/L) of the same molecule?
The value was 11 ± 8.9.

What about the “SSC Male” value ([1]; measured conc. 11 μg/L) of the same molecule?
The value was 109 ± 14.

And the “VTG (ng/mg of liver) Female” value ([1]; measured conc. 11 μg/L)?
Its value is 746 ± 419 ng/mg of liver.

And the “VTG (ng/mg of liver) Male” value ([1]; measured conc. 11 μg/L)?
The value was 33 ± 29 ng/mg of liver.

What about the “Fertility rate (%)” value ([1]; measured conc. 24 μg/L) of the same molecule?
Its value is 91%.

What about the “Mortality (%) Female” value ([1]; measured conc. 24 μg/L) of the same molecule?
The value was 8%.

What about the “Mortality (%) Male” value ([1]; measured conc. 24 μg/L) of the same molecule?
The value was 0%.

And the “Number of fertilized eggs” value ([1]; measured conc. 24 μg/L)?
Its value is 16.

And the “Number of total eggs” value ([1]; measured conc. 24 μg/L)?
Its value is 17 ± 4.0 /female/day.

And the “SSC Female” value ([1]; measured conc. 24 μg/L)?
The value was 21 ± 5.9.

What about the “SSC Male” value ([1]; measured conc. 24 μg/L) of the same molecule?
Its value is 108 ± 20.

What about the “VTG (ng/mg of liver) Female” value ([1]; measured conc. 24 μg/L) of the same molecule?
Its value is 818 ± 270 ng/mg of liver.

What about the “VTG (ng/mg of liver) Male” value ([1]; measured conc. 24 μg/L) of the same molecule?
Its value is 29 ± 22 ng/mg of liver.

And the “Fertility rate (%)” value ([1]; measured conc. 64 μg/L)?
The value was 87%.

What about the “Mortality (%) Female” value ([1]; measured conc. 64 μg/L) of the same molecule?
The value was 8%.

And the “Mortality (%) Male” value ([1]; measured conc. 64 μg/L)?
Its value is 0%.

And the “Number of fertilized eggs” value ([1]; measured conc. 64 μg/L)?
The value was 15.

What about the “Number of total eggs” value ([1]; measured conc. 64 μg/L) of the same molecule?
Its value is 16 ± 6.5 /female/day.

What about the “SSC Female” value ([1]; measured conc. 64 μg/L) of the same molecule?
The value was 35 ± 8.9.

What about the “SSC Male” value ([1]; measured conc. 64 μg/L) of the same molecule?
Its value is 101 ± 13.

What about the “VTG (ng/mg of liver) Female” value ([1]; measured conc. 64 μg/L) of the same molecule?
Its value is 1,008 ± 445 ng/mg of liver.

What about the “VTG (ng/mg of liver) Male” value ([1]; measured conc. 64 μg/L) of the same molecule?
The value was 37 ± 27 ng/mg of liver.

What about the “Fertility rate (%)” value ([1]; measured conc. 243 μg/L) of the same molecule?
Its value is 2.9%.

What about the “Mortality (%) Female” value ([1]; measured conc. 243 μg/L) of the same molecule?
The value was 83%.

And the “Mortality (%) Male” value ([1]; measured conc. 243 μg/L)?
Its value is 50%.

And the “Number of fertilized eggs” value ([1]; measured conc. 243 μg/L)?
Its value is 0.2.

What about the “Number of total eggs” value ([1]; measured conc. 243 μg/L) of the same molecule?
The value was 1.0 ± 2.3 /female/day.

And the “SSC Female” value ([1]; measured conc. 243 μg/L)?
Its value is 32 ± 21.

And the “SSC Male” value ([1]; measured conc. 243 μg/L)?
The value was 100 ± 10.

And the “VTG (ng/mg of liver) Female” value ([1]; measured conc. 243 μg/L)?
The value was 899 ± 139 ng/mg of liver.

What about the “VTG (ng/mg of liver) Male” value ([1]; measured conc. 243 μg/L) of the same molecule?
The value was 37 ± 36 ng/mg of liver.

What about the “effect on fecundity (number of total eggs), in words” value ([1]; 21-day exposure) of the same molecule?
Its value is “significant difference from the control”.

What about the “mARβ agonist activity (in words)” value [2] of the same molecule?
Its value is “potent AR agonists”.
